Source: publication PMC7996082, “The translocator protein ligands as mitochondrial functional modulators for the potential anti-Alzheimer agents” (Journal of Enzyme Inhibition and Medicinal Chemistry, 2021)

Assays:
[1] = MTT assay: HT22 cell viability with compound alone; type: cell-based, mouse; settings: mouse, HT22 cells; HT22 cell viability after 24 h of treatment with 5 μM compound, no Aβ
Experimental: To a clear 96-well plate (FALCON), the cultured HT-22 cells were seeded in a number of 5,000 per well 24 h prior to the assay. A solution of each test compound (5 µM, 25 µL) was added to each well. After 24 h of incubation at 37 °C, the cells were treated with a 10 µL of MTT solution (3–(4,5-dimethylthiazol-2-yl)-2,5-diphenyltetrazolium bromide, Sigma-Aldrich), incubated for 2 h at 37 °C, and were treated with 135 µL of MTT solubilising solution (10% Triton-X 100 in isopropanol with 0.1 M HCl) for 2 h at 37 °C. The % values of cell viability were determined by using the optical density (OD) values at 560 nm, and normalised by taking the vehicle control (5 µM of DMSO) as […].

hERG channel = target: T1, hERG channel (Homo sapiens, UniProt Q12809); test: hERG inhibition assay (automated patch-clamp, CHO-K1 Tet-On hERG cells); type: cell-based; settings: patch-clamp, ± SD
T1 construct: host or cells: CHO-K1 Tet-On hERG cells
T1 sequence (Q12809 whole entry): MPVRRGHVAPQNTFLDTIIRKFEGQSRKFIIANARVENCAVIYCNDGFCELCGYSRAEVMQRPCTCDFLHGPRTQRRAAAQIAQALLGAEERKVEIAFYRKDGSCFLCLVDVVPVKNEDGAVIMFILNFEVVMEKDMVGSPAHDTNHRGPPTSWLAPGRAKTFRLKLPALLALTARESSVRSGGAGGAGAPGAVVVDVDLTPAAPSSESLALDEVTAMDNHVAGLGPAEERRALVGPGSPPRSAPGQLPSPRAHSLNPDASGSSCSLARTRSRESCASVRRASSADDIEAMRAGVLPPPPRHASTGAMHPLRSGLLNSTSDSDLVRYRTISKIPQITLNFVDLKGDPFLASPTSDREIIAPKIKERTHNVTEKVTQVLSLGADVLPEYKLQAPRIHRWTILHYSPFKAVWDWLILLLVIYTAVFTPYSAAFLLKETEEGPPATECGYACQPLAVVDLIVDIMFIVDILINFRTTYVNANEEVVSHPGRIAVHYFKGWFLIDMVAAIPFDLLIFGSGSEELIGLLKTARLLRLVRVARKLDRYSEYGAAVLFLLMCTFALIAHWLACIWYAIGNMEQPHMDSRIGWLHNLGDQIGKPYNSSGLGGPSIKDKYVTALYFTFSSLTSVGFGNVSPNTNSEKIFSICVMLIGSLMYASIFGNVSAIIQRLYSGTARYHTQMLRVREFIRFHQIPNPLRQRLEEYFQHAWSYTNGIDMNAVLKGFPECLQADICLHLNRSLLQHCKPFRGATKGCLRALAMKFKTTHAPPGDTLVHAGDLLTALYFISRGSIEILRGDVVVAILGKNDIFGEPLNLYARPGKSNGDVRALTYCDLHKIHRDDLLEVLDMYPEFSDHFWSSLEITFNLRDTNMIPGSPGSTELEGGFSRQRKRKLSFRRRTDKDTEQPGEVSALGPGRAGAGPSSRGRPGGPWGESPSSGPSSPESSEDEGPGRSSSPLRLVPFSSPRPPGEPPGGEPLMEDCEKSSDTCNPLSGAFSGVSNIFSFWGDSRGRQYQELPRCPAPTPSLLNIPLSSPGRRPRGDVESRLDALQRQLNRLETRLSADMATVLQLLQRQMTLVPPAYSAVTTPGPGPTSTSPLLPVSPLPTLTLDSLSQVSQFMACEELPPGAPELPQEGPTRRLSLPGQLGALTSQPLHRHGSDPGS
Experimental: For automated patch-clamp NPC-16 Patchliner (Nanion Technologies, München, Germany) recordings, CHO-K1 Tet-On hERG cells (IonGate Biosciences GmbH, Frankfurt, Germany) were plated into 100-mm cell culture dishes. Whole-cell currents were recorded with the intracellular solution containing: 50 mM KCl, 60 mM KF, 10 mM NaCl, 2 mM MgCl2, 20 mM EGTA and 10 mM HEPES (pH 7.2), and with the extracellular solution containing: 140 mM NaCl, 4 mM KCl, 2 mM CaCl2, 1 mM MgCl2, 5 mM Glucose and 10 HEPES (pH 7.4). To assist stable seal formations, the seal enhancer containing: 80 mM NaCl, 3 mM KCl, 35 mM CaCl2, 10 mM MgCl2 and 10 mM HEPES (pH 7.4) was used only at the seal formation step. Prior to the whole-cell recordings, the external seal enhancing solution was exchanged to the extracellular solution described above. hERG channel currents were recorded using the parallel EPC-10 patch-clamp amplifiers (HEKA Elektronik, Lambrecht/Pfalz, Germany), and low-pass filtered (10 kHz) with a 4-pole Bessel filter. Cell suspension and patch solutions were automatically added onto the four recording wells in the microfabricated disposable chip (NPC-16 Chip, Nanion Technologies, München, Germany). To obtain the inhibitory constants, hERG tail currents were evoked by repolarizing steps to −50 mV for 500 ms preceded by a 500-ms depolarisation potential of +20 mV at a holding potential of −80 mV with a 20-s sweep interval. Whole-cell currents were acquired and digitised at 5 kHz using Patchmaster (HEKA Elektronik, Lambrecht/Pfalz, Germany). The extracellular solution was exchanged to the extracellular solution containing each blocker via four pipette tips of NPC-16 Patchliner using a 4-fold volume of solution (40 µL) with a speed of 4 µL/s, and the exchanged blocker solution was applied for 100–200 s to the patch-clamped cells until blocker binding had reached equilibrium by monitoring hERG tail currents. Whole-cell recordings were analysed using the Patchmaster/Fitmaster (HEKA Elektronik, Lambrecht/Pfalz, Germany), IGOR Pro (WaveMetrics Inc., Portland, OR, USA), and the GraphPad Prism 4.0 (GraphPad Software, Inc., La Jolla, CA, USA) software.

[2] = Liver microsomal stability; type: in vitro ADME; settings: human, liver microsomes, 1 µM compound, 0.5 mg/mL microsomes, 30 min, 37 °C; read-out: Human Liver Microsomal Stability (% remaining after 30 min)
Experimental: Liver microsomes (human, dog, rat, and mouse; 0.5 mg/mL) were incubated with 1 µM of each test compound in the presence of potassium phosphate buffer (PPB) for 5 min at 37 °C. A solution of the NADPH regeneration system (#44332000, Oriental Yeast Co., Japan) was added to begin metabolic reactions of liver microsomes. The resulting mixtures were incubated for 30 min at 37 °C, and the reaction was terminated by the addition of a cold MeCN solution containing an internal standard (chlorpropamide). The mixture was separated by centrifugation (14,000 rpm for 5 min at 4 °C), and the supernatant was analysed by LC-MS/MS (Shimadzu Nexera XR system and TSQ vantage; Thermo Scientific).

CYP1A2 = target: T2, CYP1A2 (Homo sapiens, UniProt P05177); test: CYP inhibition assay (Vivid CYP450 screening kit); type: in vitro ADME; settings: 10 μM compound
T2 construct: purchased Invitrogen, Madison, WI, USA
T2 sequence (P05177 2-516 limits assumed): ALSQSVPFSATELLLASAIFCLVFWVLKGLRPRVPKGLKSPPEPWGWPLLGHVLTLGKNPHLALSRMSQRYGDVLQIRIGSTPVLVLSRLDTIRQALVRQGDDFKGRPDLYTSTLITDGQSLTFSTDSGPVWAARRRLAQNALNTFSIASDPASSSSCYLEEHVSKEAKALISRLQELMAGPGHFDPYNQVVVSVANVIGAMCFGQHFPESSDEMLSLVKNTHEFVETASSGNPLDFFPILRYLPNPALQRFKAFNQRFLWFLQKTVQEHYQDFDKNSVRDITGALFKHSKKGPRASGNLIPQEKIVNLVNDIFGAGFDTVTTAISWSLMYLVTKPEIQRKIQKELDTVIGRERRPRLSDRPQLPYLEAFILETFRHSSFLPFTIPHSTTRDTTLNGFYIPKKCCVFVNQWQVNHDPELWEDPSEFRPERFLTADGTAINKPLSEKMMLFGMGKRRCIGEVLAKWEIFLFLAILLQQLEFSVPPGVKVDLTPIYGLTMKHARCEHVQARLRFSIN
Experimental: (§1) Human CYP450 (CYP1A2, 2D6, 2C9, 2C19, and 3A4) activities were determined by using the Vivid® CYP450 screening kit (Invitrogen, Madison, WI, USA) in a clear 96-well plate. Five positive controls were used as 10 mM solutions in MeCN for five different CYP450 enzymes: CYP1A2 (α-naphthoflavone), CYP2D6 (quinidine), CYP2C9 (sulfaphenazole), CYP2C19 (lansoprazole), and CYP3A4 (ketoconazole). Each sample (test compounds, positive inhibition controls, and solvent controls) was added into each well with the Master Pre-Mix [CYP450 BACULOSOMES® Reagent (recombinant human CYP450 isozyme and rabbit NADPHP450 reductase) and Regeneration System (3.3 mM glucose-6-phosphate and 0.3 U/ml glucose-6-phosphate dehydrogenase in 100 mM potassium phosphate, pH 8.0)]. The mixture was incubated for 5 min at 37 °C, and the Vivid® CYP substrates and 0.1 mM NADP^+ buffer were added to initiate the CYP450 enzyme reaction. The % remaining activities of CYP450 were measured after 20 min by using a fluorescent plate reader (Flexstation® 3, Molecular Devices, USA).

CYP2C9 = target: T3, CYP2C9 (Homo sapiens, UniProt P11712); test: CYP inhibition assay (Vivid CYP450 screening kit); type: in vitro ADME; settings: 10 μM compound
T3 construct: purchased Invitrogen, Madison, WI, USA
T3 sequence (P11712 whole entry): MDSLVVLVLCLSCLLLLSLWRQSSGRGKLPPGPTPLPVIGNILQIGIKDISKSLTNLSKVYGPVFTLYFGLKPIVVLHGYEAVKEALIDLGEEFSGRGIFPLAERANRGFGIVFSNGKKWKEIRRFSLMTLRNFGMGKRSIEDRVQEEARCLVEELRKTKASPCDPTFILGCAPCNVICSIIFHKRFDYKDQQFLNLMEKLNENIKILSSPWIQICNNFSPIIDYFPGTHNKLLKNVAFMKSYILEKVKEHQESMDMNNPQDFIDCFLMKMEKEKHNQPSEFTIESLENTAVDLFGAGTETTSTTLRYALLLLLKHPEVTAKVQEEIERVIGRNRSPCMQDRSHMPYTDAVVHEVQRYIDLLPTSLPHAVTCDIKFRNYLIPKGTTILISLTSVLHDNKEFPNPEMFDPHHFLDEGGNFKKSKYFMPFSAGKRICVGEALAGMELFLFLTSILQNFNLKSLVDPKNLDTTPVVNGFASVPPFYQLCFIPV
Experimental: as §1

CYP2D6 = target: T4, CYP2D6 (Homo sapiens, UniProt P10635); test: CYP inhibition assay (Vivid CYP450 screening kit); type: in vitro ADME; settings: 10 μM compound
T4 construct: purchased Invitrogen, Madison, WI, USA
T4 sequence (P10635 whole entry): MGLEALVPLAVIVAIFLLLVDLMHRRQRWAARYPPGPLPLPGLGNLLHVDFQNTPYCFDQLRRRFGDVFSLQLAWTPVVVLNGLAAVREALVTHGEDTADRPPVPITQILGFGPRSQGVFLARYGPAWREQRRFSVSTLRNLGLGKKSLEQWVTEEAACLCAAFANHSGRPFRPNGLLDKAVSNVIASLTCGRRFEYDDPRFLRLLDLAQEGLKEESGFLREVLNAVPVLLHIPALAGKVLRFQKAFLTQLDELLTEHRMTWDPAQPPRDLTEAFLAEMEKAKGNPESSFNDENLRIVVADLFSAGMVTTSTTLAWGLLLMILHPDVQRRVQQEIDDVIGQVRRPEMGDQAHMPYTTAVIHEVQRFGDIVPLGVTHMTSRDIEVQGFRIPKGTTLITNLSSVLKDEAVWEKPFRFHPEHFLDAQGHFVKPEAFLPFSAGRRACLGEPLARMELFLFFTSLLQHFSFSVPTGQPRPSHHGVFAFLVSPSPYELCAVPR
Experimental: as §1

CYP2C19 = target: T5, CYP2C19 (Homo sapiens, UniProt P33261); test: CYP inhibition assay (Vivid CYP450 screening kit); type: in vitro ADME; settings: 10 μM compound
T5 construct: purchased Invitrogen, Madison, WI, USA
T5 sequence (P33261 whole entry): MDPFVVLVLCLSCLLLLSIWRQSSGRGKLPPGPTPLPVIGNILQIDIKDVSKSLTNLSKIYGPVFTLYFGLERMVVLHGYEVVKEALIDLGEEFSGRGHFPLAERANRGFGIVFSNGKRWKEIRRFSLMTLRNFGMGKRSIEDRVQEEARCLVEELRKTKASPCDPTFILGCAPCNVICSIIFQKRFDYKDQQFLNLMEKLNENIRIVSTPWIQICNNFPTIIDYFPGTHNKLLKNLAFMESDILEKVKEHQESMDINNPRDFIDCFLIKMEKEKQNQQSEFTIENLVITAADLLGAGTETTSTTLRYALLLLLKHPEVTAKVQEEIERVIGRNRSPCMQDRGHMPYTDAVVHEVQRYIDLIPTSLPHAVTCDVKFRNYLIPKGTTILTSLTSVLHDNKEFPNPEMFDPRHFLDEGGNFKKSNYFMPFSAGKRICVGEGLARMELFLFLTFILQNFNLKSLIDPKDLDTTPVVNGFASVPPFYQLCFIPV
Experimental: as §1

CYP3A4 = target: T6, CYP3A4 (Homo sapiens, UniProt P08684); test: CYP inhibition assay (Vivid CYP450 screening kit); type: in vitro ADME; settings: 10 μM compound
T6 construct: purchased Invitrogen, Madison, WI, USA
T6 sequence (P08684 2-503 limits assumed): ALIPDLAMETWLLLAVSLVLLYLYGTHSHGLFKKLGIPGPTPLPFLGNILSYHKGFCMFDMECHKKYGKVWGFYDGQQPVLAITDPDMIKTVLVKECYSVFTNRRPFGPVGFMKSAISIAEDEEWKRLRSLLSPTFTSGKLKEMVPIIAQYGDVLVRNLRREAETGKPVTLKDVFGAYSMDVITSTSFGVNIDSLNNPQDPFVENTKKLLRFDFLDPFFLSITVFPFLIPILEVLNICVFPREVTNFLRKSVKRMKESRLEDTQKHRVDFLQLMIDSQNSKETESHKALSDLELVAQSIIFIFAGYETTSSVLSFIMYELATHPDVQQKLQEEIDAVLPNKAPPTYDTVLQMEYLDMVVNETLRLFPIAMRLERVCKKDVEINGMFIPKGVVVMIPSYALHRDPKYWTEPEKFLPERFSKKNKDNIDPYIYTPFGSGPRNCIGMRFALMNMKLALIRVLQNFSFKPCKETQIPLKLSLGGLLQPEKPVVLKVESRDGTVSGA
Experimental: as §1

remaining at 0.5 h, 1 µM [2] [%]	CYP450 (% remaining Activity at 10 μM) CYP1A2 (CYP1A2) [%]	CYP450 (% remaining Activity at 10 μM) CYP2C9 (CYP2C9) [%]	CYP450 (% remaining Activity at 10 μM) CYP2D6 (CYP2D6) [%]	CYP450 (% remaining Activity at 10 μM) CYP2C19 (CYP2C19) [%]	CYP450 (% remaining Activity at 10 μM) CYP3A4 (CYP3A4) [%]	SMILES	viability at 24 h, 5 µM [1] [%]	IC50 (hERG channel) [µM]
						COc1ccc(-n2c(SCC(=O)Nc3ccc(F)c(F)c3)nc3sc4c(c3c2=O)CCN(C(C)=O)C4)cc1 [Compound 27]	92	
						CCOc1ccc(-n2c(SCC(=O)NCCN3CCCCC3)nc3sc4c(c3c2=O)CCN(C(C)=O)C4)cc1 [Compound 28]	71	
< 10	117.3	30.9	91.7	23.3	49.3	CCOc1ccc(-n2c(SCC(=O)N(C)Cc3ccccc3)nc3sc4c(c3c2=O)CCN(C(C)=O)C4)cc1 [Compound 32]	88	6.53 ± 2.46
						CCOc1ccc(-n2c(SCC(=O)N(CC)CC)nc3sc4c(c3c2=O)CCN(C(C)=O)C4)cc1 [Compound 38]	77	
	143.1	61.0	95.1	64.0	51.8	CCCN(CCC)C(=O)CSc1nc2sc3c(c2c(=O)n1-c1ccc(OCC)cc1)CCN(C(C)=O)C3 [Compound 39]	99	5.87 ± 1.18
	103.0	33.6	79.8	57.4	38.9	CCCCN(CCCC)C(=O)CSc1nc2sc3c(c2c(=O)n1-c1ccc(OCC)cc1)CCN(C(C)=O)C3 [Compound 40]	107	2.43 ± 0.48
						CCCCNC(=O)CSc1nc2sc3c(c2c(=O)n1-c1ccc(OCC)cc1)CCN(C(C)=O)C3 [Compound 43]	79	
4.3	110.5	14.9	107.0	23.2	89.1	CCOc1ccc(-n2c(SCC(=O)N3CCN(Cc4ccccc4)CC3)nc3sc4c(c3c2=O)CCN(C(C)=O)C4)cc1 [Compound 45]	113	
6.6	84.4	6.7	72.3	16.5	81.2	CCOc1ccc(-n2c(SCC(=O)N3CCC(c4ccccc4)CC3)nc3sc4c(c3c2=O)CCN(C(C)=O)C4)cc1 [Compound 46]	86	
2.2	81.5	15.6	64.0	15.0	66.2	CCOc1ccc(-n2c(SCC(=O)N3CCC(Cc4ccccc4)CC3)nc3sc4c(c3c2=O)CCN(C(C)=O)C4)cc1 [Compound 47]	94	
63.4	35.8	33.7	57.8	20.3	20.7	CCOc1ccc(-n2c(SCC(=O)Nc3ccc(OC)c(OC)c3)nc3sc4c(c3c2=O)CCN(C)C4)cc1 [Compound 48]	106	
						CCOc1ccc(-n2c(SCC(=O)Nc3ccc(Cl)cc3)nc3sc4c(c3c2=O)CCN(C)C4)cc1 [Compound 53]	89	
						CCOc1ccc(-n2c(SCC(=O)NCc3ccc(C)cc3)nc3sc4c(c3c2=O)CCN(C)C4)cc1 [Compound 54]	107	
	71.9	44.5	89.2	30.5	30.9	CCCN(CCC)C(=O)CSc1nc2sc3c(c2c(=O)n1-c1ccc(OCC)cc1)CCN(C)C3 [Compound 56]	108	12.9 ± 3.03
						CCCCN(CCCC)C(=O)CSc1nc2sc3c(c2c(=O)n1-c1ccc(OCC)cc1)CCN(C)C3 [Compound 57]	110	
						CCn1c(SCC(=O)Nc2ccc(OC)c(OC)c2)nc2sc3c(c2c1=O)CCN(C(C)=O)C3 [Compound 58]	99	
						CCCn1c(SCC(=O)Nc2ccc(OC)c(OC)c2)nc2sc3c(c2c1=O)CCN(C(C)=O)C3 [Compound 59]	112	
						COc1ccc(NC(=O)CSc2nc3sc4c(c3c(=O)n2CC(C)C)CCN(C(C)=O)C4)cc1OC [Compound 60]	96	
						CCCCn1c(SCC(=O)Nc2ccc(OC)c(OC)c2)nc2sc3c(c2c1=O)CCN(C(C)=O)C3 [Compound 61]	97	
						COc1ccc(NC(=O)CSc2nc3sc4c(c3c(=O)n2C(C)C)CCN(C(C)=O)C4)cc1OC [Compound 62]	94	
